Legend:
[1] = system: T1, recombinant human transferrin receptor 1 (TfR1); test: BLI of Tf–TfR1 binding in dilute cell culture media after uptake experiments; details: apoTf 30 μM + KP1019 60 μM in DMEM with ~15 μM BSA, vs same medium with apoTf only
T1 construct: extracellular domain (Cyst89-Phe760), (His)6-tagged at the N-terminus; purchased Sino Biological, Beijing, China (TfR1)
Protocol: (§1) The effects of Ru complexes on the Tf cycle were determined by BLI using previously developed protocols. The instrument used was a single-channel BLItz analyser (ForteBio, Menlo Park, CA, USA) with a tube holder (250 µL solution volume) and Ni(II)–nta coated optical probes held at 295 ± 1 K. Measurements used the Advanced Kinetics mode. […] Solutions of metal–Tf adducts (typical final Tf concentrations 150 nM or 1.0 µM) were prepared in the binding buffer (Section 2.1). The pH 7.4 binding buffer was used for Tf binding and dissociation from the probe, and the pH 5.6 buffer (Section 2.1) was used to mimic the endosomal step of the Tf cycle. Metal–Tf solutions (A1–A9 in Table 1) were diluted 100–400-fold, cell culture media were diluted 30-fold, and human serum samples were diluted 200-fold with the binding buffer immediately before the BLI measurements. All BLI data were background corrected by using data from buffer only runs with the same TfR1-loaded optical probe. Consistent BLI results were obtained in at least two independent measurements, using different probes and different batches of Tf solutions. Calculations of the Tf–TfR1 binding constants were performed using the 1:1 binding model (BLItz software, Version 1.1, Forte-Bio 2013), which can be used as a reasonable approximation of the physiological 2:2 Tf–TfR1 binding mechanism at low Tf concentrations.
(a) BLI response curves for 1.0 µM of human Tf at 295 K in dilute cell culture media after Ru uptake experiments by HepG2 cells (Section 3.2 in the main text). Media (serum-free DMEM, containing 1.0 mg mL−1 BSA as a background protein, as well as KP1019 and/or Tf, as shown in the figure legend), were collected after the end of uptake experiments, then were diluted 30-fold with buffer (20 mM HEPES + 25 mM NaHCO3 + 140 mM NaCl, pH = 7.4) and applied to TfR1-loaded BLI probe. Designations of the steps in Tf cycle (A–D) correspond to those in Figure 1d-f, main text. Calculated KD values (1:1 binding model, BLItz software) were as […]

[2] = system: protein in cell culture medium; test: Ru–protein binding in cell culture medium (gel filtration, GFAAS); type: in vitro ADME; details: basal medium with ~15 μM BSA, conditions B1 and B2
Protocol: An aliquot (50 µL) of cell culture medium from each well was passed through a separate Bio-Rad P6 centrifugal gel filtration column that was pre-saturated with PBS, according to manufacturer’s instructions. The eluants (50 ± 5 µL volume) contained protein-bound Ru fractions (>6 kDa molecular mass). The protein recovery, measured by Bradford assays, exceeded 95%. Another 50 µL sample of each medium was taken into separate tubes. Both the original and gel-filtered media samples were digested with 0.20 mL of 65% (v/v) HNO3 for 24 h. The digests were diluted with 0.75 mL of 0.10 M HCl, and the Ru content in the samples was determined by GFAAS. The percentage of protein binding was determined from the ratio of Ru content in the gel-filtered and original media samples [30, 31].

[3] = cited from earlier work
[4] = Decomposition of KP1019 in cell culture medium; type: in vitro ADME; details: 310 K; reported previously and confirmed in this work
[5] = system: T2, recombinant human transferrin receptor 1 (TfR1); test: BLI of Tf–TfR1 binding in dilute human serum pre-treated with metal complexes; details: serum incubated with 100 μM Ru complex or 60 μM Fe(III) as citrate
T2 construct: extracellular domain (Cyst89-Phe760), (His)6-tagged at the N-terminus; purchased Sino Biological, Beijing, China (TfR1); Sigma (human serum, Cat. No. H4522, as source of Tf) 11020-H07H
Protocol: as §1, with “concentrations. […]” for “concentrations.”
(b) BLI response curves for dilute human serum samples in the presence or absence of metal complexes. Intact commercial human serum (Sigma H4522) was incubated with Fe(III)-citrate (60 µM) or with Ru complexes (100 µM) for 4 h at 310 K, then diluted 200-fold (to [Tf] ~ 150 nM) with the binding buffer (20 mM HEPES, 25 mM NaHCO3, 140 mM NaCl, pH = 7.4), and analyzed with the TfR1-loaded BLI probe. Designations of the steps in Tf cycle (A–D) correspond to those in Figure 1d-f, main text. Calculated KD values (1:1 binding model, BLItz software) were as follows: 8.0 nM (serum + Fe(III) citrate); or 28 ± 2 nM (serum in the presence or absence of Ru complexes). Typical anticancer Ru complexes, NAMI-A, KP1019 and RAPTA-C, were synthesized and characterized previously in the Lay group.
(1 picture or pasted object on this page, not shown here)

For `[Cl-].[Cl-].[Cl-].[Cl-].[Ru+3].c1ccc2[nH][nH+]cc2c1.c1ccc2[nH]ncc2c1.c1ccc2[nH]ncc2c1` [KP1019, (IndH)[Ru^IIICl4(Ind)2]], the “Effect on Tf–TfR1 binding in cell culture medium” value [1] is listed as “did not have a major effect”, the “Protein-bound proportion of KP1019 decomposition products in basal medium” value [2] is listed as ~ 50% and the “Tf binding of KP1019 decomposition products in blood serum, share of total Ru” value ([3]; human pharmacokinetic studies) is listed as 1–2%. The “Typical peak Ru concentrations in the blood of patients” value ([3]; patients treated with KP1019 in clinical trials) was 0.1 to 0.4 mM, the “Decomposition in cell culture medium (time)” value [4] was “within several hours” and the “Effect on Tf–TfR1 binding in whole human serum” value [5] was “did not have any effect”.
